Reference: patent US4857310A, “Triglyceride quaternary ammonium compounds, their preparation and use” (The Gillette Company, priority 1987, dated 1989)

Test: absorption of moisturizing composition by the skin
Format: in vivo
Conditions: replacing 20% by weight of the avocado oil or apricot kernel oil in moisturizing compositions
From the text: The triglyceride quaternary ammonium compounds of formula I in which R is C16 -C20 alkyl are valuable additives to a range of cosmetic and toiletry compositions. They are particularly useful in moisturizing compositions containing natural triglycerides which are not easily absorbed by the skin. Examples of such natural triglycerides are avocado oil and apricot kernel oil which are the major natural triglyceride oil components of certain commercially available moisturizing lotions and creams.

## CCCCCCCCCCCCCCCCCC[N+](C)(C)CC(=O)OC(CC=CCCCCCCCC(=O)OCC(COC(=O)CCCCCCCC=CCC(CCCCCC)OC(=O)C[N+](C)(C)CCCCCCCCCCCCCCCCCC)OC(=O)CCCCCCCC=CCC(CCCCCC)OC(=O)C[N+](C)(C)CCCCCCCCCCCCCCCCCC)CCCCCC (stereo not shown) [Example 1, propane-1,2,3-tri[octadec-9-en-12-(oxycarbonyl-N-methylene-N,N-dimethyl-N-octadecylammonium chloride)oate]]
  improvement in the absorption of the composition by the skin: significant improvement
